What was measured:
HCMV = assay: Impact on HCMV replication (qPCR of HCMV DNA in HFF); type: cell-based, human cytomegalovirus; details: 2-fold IC50 (HAdV plaque assay), 72 h
Method: To test the anti-HCMV activity of these rotenolone-related compounds, human foreskin fibroblasts (HFF; ATCC, Manassas, VA) were seeded in a 24-well plate (8.3 × 10^4 cells/well), infected with HCMV (MOI 0.05 vp/cell), and incubated in complete DMEM in the presence of either 2-fold IC50 concentration of each compound obtained in the plaque assay against HAdV or the same volume of DMSO (positive control) in duplicate. The cells were incubated for 72 h at 37°C and 5% CO2 and HCMV DNA was purified from the cell lysate using E.Z.N.A Tissue DNA Kit (Omega Biotek, Norcross, GA, USA) following the manufacturer’s instructions. The qPCR primers, conditions, and protocols were the same as previously reported ([Mazzotta et al., 2020b]).

HAdV5 = assay: HAdV-mediated endosome disruption (α-sarcin co-delivery, HPG incorporation); type: cell-based, human adenovirus (HAdV5)
Method: A549 cells (2 × 10^4 cells/well) were incubated in DMEM without cysteine or methionine supplemented with 10% dialyzed FBS [DMEM(−)] in black 96-well plates for 1 h prior to infection. Three-fold serial dilutions (0.45 ng–1,000 ng) of HAdV5, or AdV2ts1 were preincubated with cells in the presence of 10-fold IC50 concentration of the compounds obtained in the plaque assay or the same volume of DMSO for positive control for 1 h. The medium was then removed and replaced with 50 μL DMEM(−) containing 0.1 mg/ml α-sarcin (Santa Cruz Biotechnology, Dallas, Texas, USA) and drug mixtures. After 1 h at 37°C, the Click-iT L-homopropargylglycine (HPG) Alexa Fluor 488 Protein Synthesis Assay Kits (Invitrogen) was used to analyse protein synthesis according to the manufacturer’s instructions. The incorporation of the amino acid analogue of methionine HPG containing Alexa Fluor 488 azide was measured using a Typhoon 9410 imager (GE Healthcare Life Sciences) and calculated by subtracting the background level of the control well containing HPG and α-sarcin but not the virus (100% incorporation).

wild-type HAdV5 [1] = assay: Nuclear-associated HAdV genomes (qPCR after nuclear isolation); type: cell-based, human adenovirus (HAdV5); details: 10-fold IC50; 45 min after synchronized infection; A549
Method: Nuclear delivery of HAdV genomes was assessed using qPCR following nuclear isolation from infected cells. Briefly, 1 × 10^6 A549 cells in 6-well plates were infected either with wild-type HAdV5 at an MOI of 2,000 vp/cell in the presence of a 10-fold IC50 concentration of the compounds obtained in the plaque assay or the same volume of DMSO as the positive control. Forty-five minutes after infection, the A549 cells were trypsinized, collected, and washed twice with PBS. The cell pellet was resuspended in 500 μL of 1×hypotonic buffer (20 mM Tris-HCl pH 7.4, 10 mM NaCl, 3 mM MgCl2) and incubated for 15 min at 4°C. Then, 25 μL of NP-40 was added and the samples were vortexed. The homogenates were centrifuged for 10 min at 835 g at 4°C. Following the removal of the cytoplasmic fraction (supernatant), HAdV DNA was isolated from the nuclear (pellet) and cytoplasmic fractions using the E.Z.N.A.® Tissue DNA Kit (Omega Bio-tek, Norcross, GA).

HAdV5-GFP [2] = assay: Initial rapid screening, HAdV5-mediated GFP expression in A549 cells; type: cell-based, human adenovirus (HAdV5); details: 50 µM, 2,000 vp/cell, 48 h
Method: An initial rapid screening was performed using human A549 cells (3 × 10^5 cells/well) infected with HAdV5-GFP with a multiplicity of infection (MOI) of 2,000 vp/cell in the presence of 50 μM of the candidate antiviral compounds. Briefly, a standard infection curve was generated in parallel by infecting cells in the absence of compounds using serial two-fold dilutions of virus. Cells, virus and compounds were incubated for 48 h at 37°C and 5% CO2. Infection, as measured by HAdV5-mediated GFP expression, was analyzed using a Typhoon 9410 imager (GE Healthcare Life Sciences), and quantified with ImageQuantTL (GE Healthcare Life Sciences). All reactions were done in triplicate.

wild-type HAdV5 [3] = assay: HAdV yield reduction (burst) assay, TCID50 end-point dilution; type: cell-based, human adenovirus (HAdV5); details: 10-fold IC50 concentration; TCID50/ml compound vs. DMSO; A549 cells; 48 h; MOI 100 vp/cell
Method: A549 cells (1.5 × 10^5 cells/well in a 24-well plate) were incubated 24 h in 500 μL of complete DMEM and they were infected with wild-type HAdV5 (MOI 100 vp/cell) when more than 90% of confluency was observed. Infected cells were incubated for 48 h at 37°C in 500 μL of either complete DMEM containing 10-fold IC50 concentration of compounds obtained in the plaque assay or the same volume of DMSO (positive control). After 48 h, the cells were harvested and subjected to three rounds of freeze/thaw. Serial dilutions of the clarified lysates were titrated against A549 cells (3 × 10^4 cells/well in a 96-well plate) and TCID50 values were calculated using an end-point dilution method ([Reed and Muench, 1938]).

A549 cells = assay: Cytotoxicity assay (AlamarBlue); type: cell-based, Human; details: 48 h
Method: The cytotoxicity of the molecules was analyzed using the commercial kit AlamarBlue® (Invitrogen, Ref. DAL1025) according to the manufacturer’s instructions. Briefly, A549 cells were seeded at a density of 5 × 10^3 cells per well in 96-well plates, and decreasing serial dilutions of each molecule were diluted in 100 μL of DMEM starting at 200 μM. The cells were then incubated at 37°C for 48 h following the manufacturer’s protocol. The cytotoxic concentration 50% (CC50) value was obtained using the statistical software GraphPad Prism 6. The assay was performed in duplicate.

HAdV5-GFP [4] = assay: microbe, parasite or virus in culture; type: cell-based, human adenovirus (HAdV5); details: HAdV5-GFP; 293β5 cells; MOI 0.06 vp/cell; 7 days; read-out: IC50 plaque assay
Method: Compounds were tested using low MOI infections (0.06 vp/cell), initially at concentrations of 10 μM and subsequently in a dose-response assay ranging from 10 μM to 2.44 nM in a plaque assay. Briefly, 293β5 cells were seeded in 6-well plates at a density of 1 × 10^6 cells per well in duplicate for each condition. When the cells reached 80%–90% confluency, they were infected with HAdV5-GFP and rocked for 2 h at 37°C. After the incubation, the inoculum was removed and the cells were washed once with PBS. Cells were then carefully overlaid with equal parts of 4 mL/well 1.6% ([…]) Difco Agar Noble (Becton, Dickinson & Co., Sparks, MD, USA) and 2× Eagle’s Minimum Essential Medium (EMEM; BioWhittaker) supplemented with 2×penicillin/streptomycin, 2× L-glutamine, and 10% FBS. The mixture also contained the compounds in the concentration ranges described above. Following incubation for 7 days at 37°C, plates were scanned with a Typhoon FLA 9000 imager (GE Healthcare Life Sciences) and the formed plaques were quantified with ImageJ ([Schneider et al., 2012]). Plaque counting was performed to calculate the 50% inhibitory concentration (IC50) of each compound using the statistical software GraphPad Prism 6.

p53/MDM2 complex = type: cell-based, Human; details: HAdV5-infected A549 cells; 10-fold IC50; 24 h
Chain of p53/MDM2 complex (P04637 whole entry): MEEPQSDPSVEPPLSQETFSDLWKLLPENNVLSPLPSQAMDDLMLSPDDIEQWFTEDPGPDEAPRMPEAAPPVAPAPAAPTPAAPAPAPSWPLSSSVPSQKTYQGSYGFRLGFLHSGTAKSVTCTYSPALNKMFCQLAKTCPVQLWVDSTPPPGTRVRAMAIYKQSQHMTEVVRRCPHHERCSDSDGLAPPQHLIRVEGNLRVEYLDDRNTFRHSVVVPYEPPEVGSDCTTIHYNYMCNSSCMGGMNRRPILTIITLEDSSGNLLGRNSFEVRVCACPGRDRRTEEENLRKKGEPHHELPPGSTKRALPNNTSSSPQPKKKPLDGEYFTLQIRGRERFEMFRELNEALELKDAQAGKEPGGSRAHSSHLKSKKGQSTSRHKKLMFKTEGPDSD
Chain of p53/MDM2 complex (Q00987 whole entry, further chain): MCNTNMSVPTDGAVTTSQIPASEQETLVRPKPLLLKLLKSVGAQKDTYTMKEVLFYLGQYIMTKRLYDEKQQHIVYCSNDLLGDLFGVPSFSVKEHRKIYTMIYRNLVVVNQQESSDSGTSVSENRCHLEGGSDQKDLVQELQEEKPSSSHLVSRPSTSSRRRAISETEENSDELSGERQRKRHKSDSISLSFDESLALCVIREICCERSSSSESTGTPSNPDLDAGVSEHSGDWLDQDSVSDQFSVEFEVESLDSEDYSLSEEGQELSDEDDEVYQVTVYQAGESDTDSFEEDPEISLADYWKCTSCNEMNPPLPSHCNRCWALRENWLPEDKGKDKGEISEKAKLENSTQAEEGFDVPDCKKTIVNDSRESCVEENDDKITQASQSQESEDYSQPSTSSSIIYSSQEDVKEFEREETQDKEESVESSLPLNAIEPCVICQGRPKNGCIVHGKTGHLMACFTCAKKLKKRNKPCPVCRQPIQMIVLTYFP
Method: A549 cells were seeded at a density of 1.5 × 10^5 cells per well in a 24-well plate at a high density and 3.75 × 10^4 cells per well at a low density. […] The culture medium was then aspirated and washed with 1X with cold PBS. Later, 200 μL RIPA Lysis Buffer (1% v/v NP-40, 20 mM Tris-HCL pH 7.4, 5 mM Sodium Pyrophosphate, 5 mM EDTA) with freshly added proteinase inhibitor cocktail (Thermo Fisher Scientific) was added to each well and swirled to distribute it evenly. Cells were then scraped and collected to incubate them for 30 min on ice and finally centrifuged at 13,000 × g for 5 min at 4°C. […] This assay was performed in triplicate.

## (2R,6S,6aR,12aS)-8,9-dimethoxy-2-(prop-1-en-2-yl)-1,2,6,6a,12,12a-hexahydrochromeno[3,4-b]furo[2,3-h]chromen-6-ol [Rotenolone]
HCMV
  inhibition of HCMV replication: 85.2%
HAdV5; compared with a control without α-sarcin, 10-fold IC50, independent of virus concentration
  HPG incorporation: approximately 30%
HAdV5; α-sarcin assay
  attenuation of HAdV-mediated endosomolysis: did not attenuate
wild-type HAdV5 [1]
  accessibility of HAdV genomes to the nucleus: did not block
HAdV5-GFP [2]
  inhibition of HAdV5-GFP transgene expression: 100%
wild-type HAdV5 [3]
  Virus Yield Fold-reduction: 1.3E+04 ± 4582.5 fold
A549 cells
  CC50: 17.1 ± 0.4 µM
HAdV5-GFP [4]
  IC50: 0.03 µM
p53/MDM2 complex
  concentration of p53/MDM2 complexes, high vs low cell density: significant difference

— publication PMC10808720 (Frontiers in Pharmacology, 2024)
